Assay: xn = mol fraction of the nth substance listed
Conditions: 100.5 kPa, Liquid

CCOC(=O)c1ccccc1O [ethyl 2-hydroxybenzoate] + CCO
Conditions	mass density, 288.15 K [kg/m3]	mass density, 298.15 K [kg/m3]	mass density, 308.15 K [kg/m3]	mass density, 318.15 K [kg/m3]	viscosity, 288.15 K [mPa·s]	viscosity, 298.15 K [mPa·s]	viscosity, 308.15 K [mPa·s]	viscosity, 318.15 K [mPa·s]
x1 = 0.05	835.47	826.63	817.7	808.61	1.398	1.145	0.953	0.802
x1 = 0.1	871.02	862	852.86	843.56	1.467	1.197	0.998	0.836
x1 = 0.15	901.89	892.7	883.41	873.95	1.533	1.258	1.043	0.877
x1 = 0.2	928.98	919.64	910.21	900.63	1.615	1.322	1.094	0.915
x1 = 0.25	952.87	943.42	933.9	924.22	1.708	1.388	1.147	0.957
x1 = 0.3	974.13	964.62	955.01	945.25	1.8	1.455	1.198	0.999
x1 = 0.35	993.22	983.64	973.96	964.15	1.902	1.526	1.254	1.045
x1 = 0.4	1010.45	1000.81	991.08	981.22	2.001	1.598	1.313	1.093
x1 = 0.45	1026.08	1016.38	1006.61	996.72	2.104	1.677	1.373	1.141
x1 = 0.5	1040.36	1030.63	1020.8	1010.88	2.209	1.757	1.435	1.192
x1 = 0.55	1053.4	1043.63	1033.79	1023.85	2.317	1.838	1.498	1.242
x1 = 0.6	1065.37	1055.57	1045.7	1035.76	2.428	1.921	1.561	1.294
x1 = 0.65	1076.35	1066.53	1056.65	1046.7	2.543	2.006	1.627	1.347
x1 = 0.7	1086.51	1076.67	1066.79	1056.85	2.664	2.096	1.695	1.403
x1 = 0.75	1095.97	1086.12	1076.24	1066.31	2.8	2.187	1.766	1.463
x1 = 0.8	1104.72	1094.88	1085.02	1075.11	2.943	2.288	1.846	1.527
x1 = 0.85	1112.93	1103.09	1093.24	1083.37	3.1	2.398	1.932	1.596
x1 = 0.9	1120.61	1110.81	1101	1091.17	3.268	2.522	2.03	1.678
x1 = 0.95	1127.85	1118.07	1108.31	1098.55	3.503	2.706	2.163	1.781
x1 = 1	1134.72	1125	1115.29	1105.6	3.694	2.831	2.253	1.842

CCOC(=O)CC(C)C [ethyl 3-methylbutanoate] + CCO
viscosity [mPa·s], Capillary tube (Ostwald / Ubbelohde) method
Conditions	288.15 K	298.15 K	308.15 K	318.15 K
x1 = 0.05	1.229	1.02	0.852	0.715
x1 = 0.1	1.125	0.945	0.793	0.668
x1 = 0.15	1.057	0.891	0.75	0.638
x1 = 0.2	1.002	0.848	0.718	0.618
x1 = 0.25	0.966	0.815	0.695	0.6
x1 = 0.3	0.935	0.791	0.677	0.587
x1 = 0.35	0.908	0.771	0.663	0.579
x1 = 0.4	0.886	0.754	0.653	0.571
x1 = 0.45	0.867	0.742	0.645	0.565
x1 = 0.5	0.855	0.733	0.638	0.559
x1 = 0.55	0.847	0.724	0.631	0.554
x1 = 0.6	0.84	0.719	0.624	0.55
x1 = 0.65	0.835	0.713	0.62	0.548
x1 = 0.7	0.83	0.713	0.618	0.547
x1 = 0.75	0.827	0.714	0.619	0.546
x1 = 0.8	0.83	0.716	0.621	0.549
x1 = 0.85	0.833	0.722	0.625	0.552
x1 = 0.9	0.839	0.727	0.631	0.556
x1 = 0.95	0.845	0.729	0.634	0.56
x1 = 1	0.853	0.739	0.642	0.566

mass density [kg/m3]
Conditions	288.15 K	298.15 K	308.15 K	318.15 K
x1 = 0.05	802.64	793.85	784.95	775.9
x1 = 0.1	810.36	801.39	792.29	783.04
x1 = 0.15	817.13	807.99	798.73	789.31
x1 = 0.2	823.05	813.77	804.39	794.81
x1 = 0.25	828.3	818.9	809.39	799.73
x1 = 0.3	833.01	823.53	813.92	804.15
x1 = 0.35	837.23	827.65	817.96	808.12
x1 = 0.4	841.07	831.42	821.66	811.75
x1 = 0.45	844.57	834.87	825.05	815.07
x1 = 0.5	847.78	838.02	828.15	818.12
x1 = 0.55	850.72	840.93	831.01	820.95
x1 = 0.6	853.42	843.59	833.64	823.56
x1 = 0.65	855.93	846.06	836.09	826
x1 = 0.7	858.27	848.38	838.38	828.28
x1 = 0.75	860.46	850.55	840.55	830.44
x1 = 0.8	862.52	852.6	842.6	832.48
x1 = 0.85	864.44	854.52	844.51	834.44
x1 = 0.9	866.27	856.34	846.34	836.27
x1 = 0.95	868.03	858.12	848.15	838.1
x1 = 1	869.66	859.78	849.83	839.81

— the NIST ThermoML archive (doi:10.1021/je050402s)
